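1) Cells in 96-well plates. 2) Compound, 48 h, 5 concentrations. 3) Linear interpolation between surrounding doses. 4) Unreached endpoint = highest concentration. TGI: total growth inhibition.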

The first experiment concerns M14 melanoma. Briefly: growth of human tumour cells (NCI), 48 h.
Turning to `CC(C)N(C(=O)C1(O)c2ccccc2C=Cc2ccccc21)C(C)C`, the TGI stood at 40.1 µM.
Same read-out and setting: the same measure for `O=C1c2cccc3cccc(c23)C2NCCCN12` (stereo not drawn): greater than 100 µM; for `CCCCCC(=O)CCCCCCCC(O)CC(=O)OCC` (stereo not drawn): greater than 100 µM; for `COc1ccc(-c2nc(-c3cc4c(ccc5ccccc54)oc3=O)cs2)cc1`: greater than 100 µM.
Same read-out and setting: for `CC(=O)N(CCc1ccccc1)C(C#N)c1ccccc1` (stereo not drawn) the value was greater than 100 µM; for `Cc1nn(C(=O)c2ccc(Cl)cc2)c2c1C(/C=C/c1ccccc1)SC(N)=N2` (stereo not drawn), greater than 10 µM.
Compound `Cc1cc(C)c(C(=O)c2nnc3ccccc3c2N)c(C)c1` returned a TGI of 34 µM.
The same measure, in the same setting: for `O=C1NC(=O)C(c2c[nH]c3ccccc23)=C1c1cn(C(c2ccccc2)(c2ccccc2)c2ccccc2)cn1` the value was 16.3 µM.
On the same count and under the same terms, the same measure for `Cc1cc(C)c2c(c1)C/C(=C\c1ccccc1C(=O)O)C2=O`: greater than 100 µM; for `CCOC(=O)c1nc2ccc(C(F)(F)F)cc2[nH]c1=O`: greater than 100 µM.
Same read-out and setting: the same measure for `Cc1cn(C2CC(O)C(CO[Si](C)(C)C(C)(C)C)OC2OC(C)C)c(=O)[nH]c1=O` (stereo not drawn): 92.5 µM.
`COC(=O)C1(C(=O)OC)C/C(C)=C(/C)SCCCS1` displayed a TGI greater than 100 µM.
The same measure, in the same setting: for `O=c1cc(CO)oc(C(O)c2ccccc2)c1O` (stereo not drawn) the value was greater than 100 µM.

For the next experiment, the system named is IGROV1 ovarian. Briefly: growth of human tumour cells (NCI), 48 h.
Consider `Cc1nn(C(=O)Cc2ccccc2)c2c1C(c1ccc(Cl)cc1)SC(N)=N2` (stereo not drawn), for which the TGI was greater than 100 µM.
The same measure, in the same setting: the same measure for `CC(C)N(C(=O)C1(O)c2ccccc2C=Cc2ccccc21)C(C)C`: 28.8 µM; for `O=C1c2cccc3cccc(c23)C2NCCCN12` (stereo not drawn): greater than 100 µM; for `CCCCCC(=O)CCCCCCCC(O)CC(=O)OCC` (stereo not drawn): greater than 100 µM.
The same measure, in the same setting: for `COc1ccc(-c2nc(-c3cc4c(ccc5ccccc54)oc3=O)cs2)cc1` the value was greater than 100 µM.
Still for that read-out and setting: for `CC(=O)N(CCc1ccccc1)C(C#N)c1ccccc1` (stereo not drawn) the value was greater than 100 µM; for `Cc1nn(C(=O)c2ccc(Cl)cc2)c2c1C(/C=C/c1ccccc1)SC(N)=N2` (stereo not drawn), greater than 10 µM; for `Cc1cc(C)c(C(=O)c2nnc3ccccc3c2N)c(C)c1`, 46.7 µM.
`O=C1NC(=O)C(c2c[nH]c3ccccc23)=C1c1cn(C(c2ccccc2)(c2ccccc2)c2ccccc2)cn1` returned a TGI of 26.2 µM.
Same read-out and setting: for `Cc1cc(C)c2c(c1)C/C(=C\c1ccccc1C(=O)O)C2=O` the value was greater than 100 µM; for `CCOC(=O)c1nc2ccc(C(F)(F)F)cc2[nH]c1=O`, greater than 100 µM.
The compound `Cc1cn(C2CC(O)C(CO[Si](C)(C)C(C)(C)C)OC2OC(C)C)c(=O)[nH]c1=O` (stereo not drawn) returned a TGI of 77 µM.
The compound `Cc1nc2ccc(NC(=S)Nc3ccccc3)cc2c(=O)n1-c1ccccc1` had a TGI greater than 100 µM.
Still for that read-out and setting: for `COC(=O)C1(C(=O)OC)C/C(C)=C(/C)SCCCS1` the value was greater than 100 µM.
On to `O=c1cc(CO)oc(C(O)c2ccccc2)c1O` (stereo not drawn), for which the TGI is greater than 100 µM.

The next experiment concerns SK-OV-3 ovarian. Briefly: growth of human tumour cells (NCI), 48 h.
Turning to `Cc1nn(C(=O)Cc2ccccc2)c2c1C(c1ccc(Cl)cc1)SC(N)=N2` (stereo not drawn), the TGI is greater than 100 µM.
On the same count and under the same terms, for `CC(C)N(C(=O)C1(O)c2ccccc2C=Cc2ccccc21)C(C)C` the value was 53.9 µM.
Still for that read-out and setting: for `O=C1c2cccc3cccc(c23)C2NCCCN12` (stereo not drawn) the value was greater than 100 µM; for `COc1ccc(-c2nc(-c3cc4c(ccc5ccccc54)oc3=O)cs2)cc1`, greater than 100 µM; for `CC(=O)N(CCc1ccccc1)C(C#N)c1ccccc1` (stereo not drawn), greater than 100 µM.
On the same count and under the same terms, the same measure for `Cc1nn(C(=O)c2ccc(Cl)cc2)c2c1C(/C=C/c1ccccc1)SC(N)=N2` (stereo not drawn): greater than 10 µM.
Regarding `Cc1cc(C)c(C(=O)c2nnc3ccccc3c2N)c(C)c1`, the TGI was greater than 100 µM.
Still for that read-out and setting: for `O=C1NC(=O)C(c2c[nH]c3ccccc23)=C1c1cn(C(c2ccccc2)(c2ccccc2)c2ccccc2)cn1` the value was 57 µM; for `CCOC(=O)c1nc2ccc(C(F)(F)F)cc2[nH]c1=O`, greater than 100 µM.
The same measure, in the same setting: for `COC(=O)C1(C(=O)OC)C/C(C)=C(/C)SCCCS1` the value was greater than 100 µM; for `O=c1cc(CO)oc(C(O)c2ccccc2)c1O` (stereo not drawn), greater than 100 µM.

Another experiment deals with UACC-257 melanoma. In words: growth of human tumour cells (NCI), 48 h.
In turn, `Cc1nn(C(=O)Cc2ccccc2)c2c1C(c1ccc(Cl)cc1)SC(N)=N2` (stereo not drawn) gave a TGI greater than 100 µM.
Same read-out and setting: for `O=C1c2cccc3cccc(c23)C2NCCCN12` (stereo not drawn) the value was greater than 100 µM.
The same measure, in the same setting: the same measure for `CCCCCC(=O)CCCCCCCC(O)CC(=O)OCC` (stereo not drawn): greater than 100 µM; for `COc1ccc(-c2nc(-c3cc4c(ccc5ccccc54)oc3=O)cs2)cc1`: greater than 100 µM.
Same read-out and setting: the same measure for `CC(=O)N(CCc1ccccc1)C(C#N)c1ccccc1` (stereo not drawn): greater than 100 µM; for `Cc1nn(C(=O)c2ccc(Cl)cc2)c2c1C(/C=C/c1ccccc1)SC(N)=N2` (stereo not drawn): greater than 10 µM; for `Cc1cc(C)c(C(=O)c2nnc3ccccc3c2N)c(C)c1`: greater than 100 µM.
Compound `O=C1NC(=O)C(c2c[nH]c3ccccc23)=C1c1cn(C(c2ccccc2)(c2ccccc2)c2ccccc2)cn1` yielded a TGI of 26.6 µM.
Same read-out and setting: the same measure for `Cc1cc(C)c2c(c1)C/C(=C\c1ccccc1C(=O)O)C2=O`: greater than 100 µM.
Same read-out and setting: for `CCOC(=O)c1nc2ccc(C(F)(F)F)cc2[nH]c1=O` the value was greater than 100 µM; for `Cc1cn(C2CC(O)C(CO[Si](C)(C)C(C)(C)C)OC2OC(C)C)c(=O)[nH]c1=O` (stereo not drawn), greater than 100 µM; for `Cc1nc2ccc(NC(=S)Nc3ccccc3)cc2c(=O)n1-c1ccccc1`, greater than 100 µM.
The compound `COC(=O)C1(C(=O)OC)C/C(C)=C(/C)SCCCS1` yielded a TGI greater than 100 µM.
The same measure, in the same setting: for `O=c1cc(CO)oc(C(O)c2ccccc2)c1O` (stereo not drawn) the value was greater than 100 µM.

Another experiment relates to SR leukemia. Briefly: growth of human tumour cells (NCI), 48 h.
Regarding `Cc1nn(C(=O)Cc2ccccc2)c2c1C(c1ccc(Cl)cc1)SC(N)=N2` (stereo not drawn), the TGI is greater than 100 µM.
As to `CC(C)N(C(=O)C1(O)c2ccccc2C=Cc2ccccc21)C(C)C`, the TGI turned out to be 63 µM.
On the same count and under the same terms, the same measure for `O=C1c2cccc3cccc(c23)C2NCCCN12` (stereo not drawn): greater than 100 µM; for `CCCCCC(=O)CCCCCCCC(O)CC(=O)OCC` (stereo not drawn): greater than 100 µM; for `COc1ccc(-c2nc(-c3cc4c(ccc5ccccc54)oc3=O)cs2)cc1`: greater than 100 µM.
The same measure, in the same setting: for `CC(=O)N(CCc1ccccc1)C(C#N)c1ccccc1` (stereo not drawn) the value was greater than 100 µM; for `Cc1nn(C(=O)c2ccc(Cl)cc2)c2c1C(/C=C/c1ccccc1)SC(N)=N2` (stereo not drawn), greater than 10 µM; for `Cc1cc(C)c(C(=O)c2nnc3ccccc3c2N)c(C)c1`, greater than 100 µM.
Still for that read-out and setting: for `O=C1NC(=O)C(c2c[nH]c3ccccc23)=C1c1cn(C(c2ccccc2)(c2ccccc2)c2ccccc2)cn1` the value was 6.78 µM; for `Cc1cc(C)c2c(c1)C/C(=C\c1ccccc1C(=O)O)C2=O`, greater than 100 µM; for `CCOC(=O)c1nc2ccc(C(F)(F)F)cc2[nH]c1=O`, greater than 100 µM.
The compound `Cc1cn(C2CC(O)C(CO[Si](C)(C)C(C)(C)C)OC2OC(C)C)c(=O)[nH]c1=O` (stereo not drawn) yielded a TGI of 62.4 µM.
Same read-out and setting: the same measure for `Cc1nc2ccc(NC(=S)Nc3ccccc3)cc2c(=O)n1-c1ccccc1`: greater than 100 µM.
On the same count and under the same terms, for `COC(=O)C1(C(=O)OC)C/C(C)=C(/C)SCCCS1` the value was greater than 100 µM.
Same read-out and setting: the same measure for `O=c1cc(CO)oc(C(O)c2ccccc2)c1O` (stereo not drawn): greater than 100 µM.
